Each molecule was assayed against recombinant human ACC2 (Homo sapiens (Human), UniProt O00763) (assay: Measurement of inhibitory activity on human ACC2 (MALDI-TOF MS, acetyl CoA to malonyl CoA conversion)). Settings: Tables 155-159.
Format: biochemical
In short: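 His-tagged human ACC2 (residues 27–2458) from baculovirus-infected Sf-9 cells was preincubated 1 h in pH 7.4 HEPES-KOH buffer with MgCl2, 6-10 mM potassium citrate, glutathione and BSA. Substrate solution held 1 mM ATP, 0.8 mM acetyl CoA and 25-50 mM bicarbonate. After 1–3 h at room temperature, malonyl CoA/(malonyl+acetyl CoA) was read by negative-mode MALDI-TOF MS; citrate, bicarbonate and time varied by enzyme lot.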

recombinant human ACC2, sequence (O00763 27-2458): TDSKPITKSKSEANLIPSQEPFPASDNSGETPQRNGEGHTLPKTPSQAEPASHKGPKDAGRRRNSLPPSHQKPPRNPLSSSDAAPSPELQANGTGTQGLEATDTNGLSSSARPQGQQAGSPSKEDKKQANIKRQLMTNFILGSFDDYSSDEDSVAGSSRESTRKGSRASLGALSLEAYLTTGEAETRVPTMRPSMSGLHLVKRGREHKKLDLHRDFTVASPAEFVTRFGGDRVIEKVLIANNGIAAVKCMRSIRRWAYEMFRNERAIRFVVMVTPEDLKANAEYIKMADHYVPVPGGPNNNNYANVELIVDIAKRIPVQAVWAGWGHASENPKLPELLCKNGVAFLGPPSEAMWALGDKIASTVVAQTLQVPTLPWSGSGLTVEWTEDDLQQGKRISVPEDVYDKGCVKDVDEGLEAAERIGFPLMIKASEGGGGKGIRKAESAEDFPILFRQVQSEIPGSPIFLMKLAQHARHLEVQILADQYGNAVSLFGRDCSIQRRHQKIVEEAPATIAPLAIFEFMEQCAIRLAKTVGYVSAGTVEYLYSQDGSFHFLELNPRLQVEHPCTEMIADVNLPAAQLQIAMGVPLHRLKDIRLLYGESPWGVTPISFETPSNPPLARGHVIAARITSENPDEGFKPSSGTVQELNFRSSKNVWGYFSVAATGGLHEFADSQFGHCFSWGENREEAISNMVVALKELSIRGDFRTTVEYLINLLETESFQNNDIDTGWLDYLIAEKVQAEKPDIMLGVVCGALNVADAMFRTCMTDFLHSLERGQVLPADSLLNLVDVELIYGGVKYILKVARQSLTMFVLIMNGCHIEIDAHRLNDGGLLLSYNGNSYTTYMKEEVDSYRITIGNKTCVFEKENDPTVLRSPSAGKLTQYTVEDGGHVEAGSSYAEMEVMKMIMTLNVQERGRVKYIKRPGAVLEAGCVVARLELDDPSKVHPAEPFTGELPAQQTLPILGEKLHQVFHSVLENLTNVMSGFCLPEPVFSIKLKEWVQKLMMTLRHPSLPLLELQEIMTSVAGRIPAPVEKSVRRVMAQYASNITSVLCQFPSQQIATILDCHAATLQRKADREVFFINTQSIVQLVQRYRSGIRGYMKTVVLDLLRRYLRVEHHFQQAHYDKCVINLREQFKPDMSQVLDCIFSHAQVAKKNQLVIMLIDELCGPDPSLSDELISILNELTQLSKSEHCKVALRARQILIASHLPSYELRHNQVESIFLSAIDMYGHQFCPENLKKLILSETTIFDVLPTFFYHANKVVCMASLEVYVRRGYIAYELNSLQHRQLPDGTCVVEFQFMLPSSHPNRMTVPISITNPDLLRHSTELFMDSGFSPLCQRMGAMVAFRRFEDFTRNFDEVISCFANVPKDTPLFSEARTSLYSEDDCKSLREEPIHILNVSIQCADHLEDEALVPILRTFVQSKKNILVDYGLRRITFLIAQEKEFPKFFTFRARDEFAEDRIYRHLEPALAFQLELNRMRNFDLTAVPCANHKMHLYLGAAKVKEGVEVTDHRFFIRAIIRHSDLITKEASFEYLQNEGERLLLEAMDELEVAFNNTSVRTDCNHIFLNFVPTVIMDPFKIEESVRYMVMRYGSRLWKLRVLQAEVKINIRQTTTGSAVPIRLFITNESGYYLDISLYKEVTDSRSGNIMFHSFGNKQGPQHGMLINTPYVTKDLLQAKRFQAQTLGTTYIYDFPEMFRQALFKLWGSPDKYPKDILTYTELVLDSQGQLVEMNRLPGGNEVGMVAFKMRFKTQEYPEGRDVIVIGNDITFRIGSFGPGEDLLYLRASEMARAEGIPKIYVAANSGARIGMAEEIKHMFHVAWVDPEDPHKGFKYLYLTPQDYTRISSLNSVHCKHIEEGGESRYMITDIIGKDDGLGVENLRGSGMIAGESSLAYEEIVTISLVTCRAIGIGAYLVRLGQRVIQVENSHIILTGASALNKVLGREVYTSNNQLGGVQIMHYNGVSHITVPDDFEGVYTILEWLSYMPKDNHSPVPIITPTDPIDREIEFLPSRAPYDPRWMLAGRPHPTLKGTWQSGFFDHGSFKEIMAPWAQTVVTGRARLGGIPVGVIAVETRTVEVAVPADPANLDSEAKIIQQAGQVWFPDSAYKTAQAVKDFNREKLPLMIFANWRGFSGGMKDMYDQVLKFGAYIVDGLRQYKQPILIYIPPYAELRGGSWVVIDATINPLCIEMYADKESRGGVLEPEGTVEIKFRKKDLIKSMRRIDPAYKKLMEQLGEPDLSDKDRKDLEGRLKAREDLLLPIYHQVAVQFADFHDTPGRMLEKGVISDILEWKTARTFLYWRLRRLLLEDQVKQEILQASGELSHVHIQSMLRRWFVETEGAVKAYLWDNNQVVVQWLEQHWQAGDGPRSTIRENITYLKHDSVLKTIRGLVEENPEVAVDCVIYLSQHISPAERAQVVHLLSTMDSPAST

Compound | IC50 [nM]
C[C@@H](CO[C@H]1CC[C@H](Oc2ncc3nc(OC4CC4)sc3c2F)CC1)NC(N)=O [Compound I-285] | 38
CC(=O)N[C@@H](C)CO[C@H]1C[C@H](COc2ccc3nc(N4CC(F)(F)C4)sc3c2F)C1 [Compound I-286] | 125
CC(=O)N[C@@H](C)CO[C@H]1C[C@H](COc2ccc3nc(N4CCC(C#N)C4)sc3n2)C1 (stereo partly drawn) [Compound I-288] | 759
C[C@@H](CO[C@H]1CC[C@H](Oc2cc3sc(OCC4CC4(F)F)nc3cn2)CC1)NC(N)=O (stereo partly drawn) [Compound I-291] | 32
CC(=O)N[C@@H](C)CO[C@H]1C[C@H](COc2ccc3nc(O[C@H]4C[C@@H](F)C4)sc3n2)C1 [Compound I-296] | 6
CC(=O)N[C@@H](C)CO[C@H]1C[C@](F)(COc2ccc3nc(OC(C)C)sc3n2)C1 [Compound I-299] | 26
CC(=O)N[C@@H](C)CO[C@H]1C[C@H](COc2ccc3nc(OC4CC(C#N)C4)sc3n2)C1 (stereo partly drawn) [Compound I-301] | 37
CC(=O)N[C@@H](C)CO[C@H]1C[C@H](COc2ccc3nc(Oc4ccc(F)nc4)sc3n2)C1 [Compound I-303] | 68
CC(=O)N[C@@H](C)CO[C@H]1C[C@H](COc2ccc3nc(Oc4ccc(F)cc4)sc3n2)C1 [Compound I-305] | 22
CC(=O)N[C@@H](C)CO[C@H]1C[C@H](COc2ccc3nc(OCC4CC4)sc3n2)C1 [Compound I-308] | 6
CC(=O)N[C@@H](C)CO[C@H]1C[C@H](COc2nccc(-c3ccc(F)cc3)c2F)C1 [Compound I-309] | 24
CC(=O)N[C@@H](C)CO[C@H]1C[C@H](COc2nccc(-c3ccc(F)cc3)c2Cl)C1 [Compound I-310] | 34
CC(=O)N[C@@H](C)CO[C@H]1C[C@H](COc2nccc(-c3ncc(OC(C)C)cn3)c2Cl)C1 [Compound I-312] | 401
CC(=O)N[C@@H](C)CO[C@H]1C[C@H](COc2nccc(OCC3CC3)c2Cl)C1 [Compound I-314] | 25
CC(=O)N[C@@H](C)CO[C@H]1C[C@H](COc2nccc(OCC(F)F)c2Cl)C1 [Compound I-315] | 503
CC(=O)N[C@@H](C)CO[C@H]1C[C@H](COc2nccc(OCC3CC3(F)F)c2Cl)C1 (stereo partly drawn) [Compound I-316] | 74

Compound | IC50 [nM]
CC(=O)N[C@@H](C)CO[C@H]1C[C@H](COc2nccc(-c3ccc(F)cc3)c2C#N)C1 [Compound I-319] | 281
CC(=O)N[C@@H](C)CO[C@H]1C[C@H](COc2nccc(-c3ccc(C(F)(F)F)cc3)c2Cl)C1 [Compound I-320] | 67
CC(=O)N[C@@H](C)CO[C@H]1C[C@H](COc2nccc(-c3ncc(C(F)(F)F)cn3)c2Cl)C1 [Compound I-322] | 63
CC(=O)N[C@@H](C)CO[C@H]1C[C@H](COc2nccc(N3CC(F)(F)C3)c2Cl)C1 [Compound I-323] | 345
CC(=O)N[C@@H](C)CO[C@H]1C[C@H](COc2nccc(N3CCCC3)c2Cl)C1 [Compound I-325] | 37
CC(=O)N[C@@H](C)CO[C@H]1C[C@H](COc2nccc(OCC(F)(F)F)c2Cl)C1 [Compound I-326] | 280
CC(=O)N[C@@H](C)CO[C@H]1C[C@H](COc2nccc(N3CCC(F)CC3)c2Cl)C1 [Compound I-330] | 105
CC(=O)N[C@@H](C)CO[C@H]1C[C@H](COc2nccc3c2OCC2CCCN32)C1 (stereo partly drawn) [Compound I-331] | 470
CC(=O)N[C@@H](C)CO[C@H]1C[C@H](COc2nccc(N3C4CCC3CC4)c2Cl)C1 [Compound I-332] | 56
CC(=O)N[C@@H](C)CO[C@H]1C[C@H](COc2nccc(-c3csc(C)n3)c2C)C1 [Compound I-333] | 203
CC(=O)N[C@@H](C)CO[C@H]1C[C@H](COc2nccc3cc(F)ccc23)C1 [Compound I-334] | 179
CC(=O)N[C@@H](C)CO[C@H]1C[C@H](COc2nccc(C3=CCCC3)c2C)C1 [Compound I-336] | 25
CC(=O)N[C@@H](C)CO[C@H]1C[C@H](COc2nccc(N3CC4(CCC4)C3)c2Cl)C1 [Compound I-337] | 7
CC(=O)N[C@@H](C)CO[C@H]1C[C@H](COc2nccc(NC(=O)c3ccccc3)c2Cl)C1 [Compound I-339] | 35
CC(=O)N[C@@H](C)CO[C@H]1C[C@H](COc2ncnc(NCc3cccc(Cl)c3)c2Cl)C1 [Compound I-340] | 21
CC(=O)N[C@@H](C)CO[C@H]1C[C@H](COc2ncnc(NCc3ccc(Cl)cc3)c2Cl)C1 [Compound I-344] | 13

Continued by falling IC50, values first:

IC50 [nM] | Compound
984 | CC(=O)N[C@@H](C)CO[C@H]1C[C@H](COc2ccc3nc(O[C@@H]4CO[C@@H]5CCO[C@@H]54)sc3n2)C1 [Compound I-283]
892 | CC(=O)N[C@@H](C)CO[C@H]1C[C@H](COc2ccc3nc(N(C)CC#N)sc3n2)C1 [Compound I-282]
300 | CC(=O)N[C@@H](C)CO[C@H]1C[C@H](COc2ccc3nc(O[C@H]4C[C@@H](O)C4)sc3n2)C1 [Compound I-294]
242 | CC(=O)N[C@@H](C)CO[C@H]1C[C@H](COc2ccc3nc(Oc4ccc(F)cn4)sc3n2)C1 [Compound I-304]
171 | CC(=O)N[C@@H](C)CO[C@H]1C[C@H](COc2ccc3nc(O[C@H]4C[C@H](O)C4)sc3n2)C1 [Compound I-293]
167 | COc1cnc(-c2ccnc(OC[C@H]3C[C@H](OC[C@H](C)NC(C)=O)C3)c2Cl)nc1 [Compound I-321]
165 | CC(=O)N[C@@H](C)CO[C@H]1C[C@H](COc2ccc3nc(OCC(C)(C)O)sc3n2)C1 [Compound I-300]
119 | CC(=O)N[C@@H](C)CO[C@H]1C[C@H](COc2ncnc(OC(C)c3ccccc3)c2Cl)C1 (stereo partly drawn) [Compound I-341]
118 | CC(=O)N[C@@H](C)CO[C@H]1C[C@H](COc2ncnc(NCc3cccc(C#N)c3)c2Cl)C1 [Compound I-343]
110 | CC(=O)N[C@@H](C)CO[C@H]1C[C@H](COc2ccc3nc(N4CC[C@H](F)C4)sc3n2)C1 [Compound I-289]
108 | CC(=O)N[C@@H](C)CO[C@H]1C[C@H](COc2ncnc(NCc3cccc(C(F)(F)F)c3)c2Cl)C1 [Compound I-342]
106 | CC(=O)N[C@@H](C)CO[C@H]1C[C@H](COc2nccc(-c3ncc(F)cn3)c2F)C1 [Compound I-311]
82 | C[C@@H](CO[C@H]1CC[C@H](Oc2cc3sc(OCC4CC4(F)F)nc3cn2)CC1)NC(=O)CO (stereo partly drawn) [Compound I-290]
80 | CC(=O)N[C@@H](C)CO[C@H]1C[C@H](COc2nccc(-n3cc(C(F)(F)F)cn3)c2Cl)C1 [Compound I-327]
72 | CC(=O)N[C@@H](C)CO[C@H]1C[C@H](COc2nccc(-c3ccc(F)cc3)c2C)C1 [Compound I-313]
57 | COc1ccc(COc2ncnc(OC[C@H]3C[C@H](OC[C@H](C)NC(C)=O)C3)c2Cl)cn1 [Compound I-348]
55 | CC(=O)N[C@@H](C)CO[C@H]1C[C@H](COc2ncnc(OCc3ccc(C#N)cc3)c2Cl)C1 [Compound I-347]
52 | CC(=O)N[C@@H](C)CO[C@H]1C[C@](C)(COc2ccc3nc(OC4CC4)sc3n2)C1 [Compound I-292]
52 | CC(=O)N[C@@H](C)CO[C@H]1C[C@](F)(COc2ccc3nc(OC4CC4)sc3n2)C1 [Compound I-298]

IC50 [nM] | Compound
52 | CC(=O)N[C@@H](C)CO[C@H]1C[C@H](COc2ccc3nc(OCC(C)(C)C#N)sc3n2)C1 [Compound I-302]
51 | CC(=O)N[C@@H](C)CO[C@H]1C[C@H](COc2ccc3nc(N4CC[C@@H](F)C4)sc3n2)C1 [Compound I-287]
51 | CC(=O)N[C@@H](C)CO[C@H]1C[C@H](COc2nccc(N3CCCCC3)c2Cl)C1 [Compound I-324]
49 | CC(=O)N[C@@H](C)CO[C@H]1C[C@H](COc2nccc3ccccc23)C1 [Compound I-318]
49 | CC(=O)N[C@@H](C)CO[C@H]1C[C@H](COc2ncnc(OCc3cccc(C(F)(F)F)c3)c2Cl)C1 [Compound I-350]
43 | CC(=O)N[C@@H](C)CO[C@H]1C[C@H](COc2ccc3nc(OC4COC4)sc3n2)C1 [Compound I-307]
42 | CC(=O)N[C@@H](C)CO[C@H]1C[C@](F)(COc2ccc3nc(OCC(F)F)sc3n2)C1 [Compound I-297]
39 | CC(=O)N[C@@H](C)CO[C@H]1C[C@H](COc2ncnc(OCc3ccc(C(F)(F)F)cc3)c2Cl)C1 [Compound I-349]
38 | CC(=O)N[C@@H](C)CO[C@H]1C[C@H](COc2ncnc(OCCc3ccccc3)c2Cl)C1 [Compound I-345]
26 | CC(=O)N[C@@H](C)CO[C@H]1C[C@H](COc2ncnc(N3CCCC3)c2Cl)C1 [Compound I-338]
19 | CC(=O)N[C@@H](C)CO[C@H]1C[C@H](COc2ncnc(OCc3cccc(C#N)c3)c2Cl)C1 [Compound I-346]
18 | CC(=O)N[C@@H](C)CO[C@H]1C[C@H](COc2nccc3c2CCN3Cc2ccccc2)C1 [Compound I-328]
18 | CC(=O)N[C@@H](C)CO[C@H]1C[C@H](COc2nccc(C3=CCCC3)c2Cl)C1 [Compound I-335]
17 | CC(=O)N[C@@H](C)CO[C@H]1C[C@H](COc2ccc3nc(N4CC5(CCC5)C4)sc3n2)C1 [Compound I-284]
15 | CC(=O)N[C@@H](C)CO[C@H]1C[C@H](COc2ccc3nc(OC[C@@H](C)F)sc3n2)C1 [Compound I-306]
14 | CC(=O)N[C@@H](C)CO[C@H]1C[C@H](COc2nccc(C3=CCCCC3)c2Cl)C1 [Compound I-317]
14 | CC(=O)N[C@@H](C)CO[C@H]1C[C@H](COc2nccc3c2ccn3Cc2ccccc2)C1 [Compound I-329]
12 | CC(=O)N[C@@H](C)CO[C@H]1C[C@H](COc2ccc3nc(O[C@H]4C[C@H](F)C4)sc3n2)C1 [Compound I-295]
